Test results as given in PubChem BioAssay (NCI).
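Tested at 5 concentrations; 48 h exposure; 96-well plates; endpoints linearly interpolated, else capped at highest concentration. TGI is the concentration that stops growth completely.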

How the values were obtained:
Assay in all cases: NCI tumour cell line growth inhibition, 48 h
HL-60(TB) leukemia = test system: HL-60(TB) leukemia
MDA-N = test system: MDA-N
786-0 renal = test system: 786-0 renal
NCI/ADR-RES ovarian = test system: NCI/ADR-RES ovarian
UACC-62 melanoma = test system: UACC-62 melanoma
BT-549 breast = test system: BT-549 breast
HCT-116 colon = test system: HCT-116 colon
OVCAR-5 ovarian = test system: OVCAR-5 ovarian
SK-MEL-2 melanoma = test system: SK-MEL-2 melanoma
COLO 205 colon = test system: COLO 205 colon
U251 CNS = test system: U251 CNS
T-47D breast = test system: T-47D breast
SN12C renal = test system: SN12C renal
CAKI-1 renal = test system: CAKI-1 renal
SK-MEL-5 melanoma = test system: SK-MEL-5 melanoma
HCC-2998 colon = test system: HCC-2998 colon
A549 NSCLC = test system: A549 NSCLC
DU-145 prostate = test system: DU-145 prostate
EKVX NSCLC = test system: EKVX NSCLC
M14 melanoma = test system: M14 melanoma
SF-295 CNS = test system: SF-295 CNS
SK-MEL-28 melanoma = test system: SK-MEL-28 melanoma
SF-268 CNS = test system: SF-268 CNS
HOP-62 NSCLC = test system: HOP-62 NSCLC
UACC-257 melanoma = test system: UACC-257 melanoma
NCI-H23 lung = test system: NCI-H23 lung
UO-31 renal = test system: UO-31 renal
OVCAR-4 ovarian = test system: OVCAR-4 ovarian
NCI-H522 lung = test system: NCI-H522 lung
MOLT-4 leukemia = test system: MOLT-4 leukemia
OVCAR-8 ovarian = test system: OVCAR-8 ovarian
SW-620 colon = test system: SW-620 colon
SNB-19 CNS = test system: SNB-19 CNS
HT29 colon = test system: HT29 colon
RXF 393 renal = test system: RXF 393 renal
K-562 leukemia = test system: K-562 leukemia
LOX IMVI melanoma = test system: LOX IMVI melanoma
A498 renal = test system: A498 renal
SR leukemia = test system: SR leukemia
HOP-92 NSCLC = test system: HOP-92 NSCLC
MCF7 breast = test system: MCF7 breast
MDA-MB-435 = test system: MDA-MB-435
MDA-MB-231 breast = test system: MDA-MB-231 breast
OVCAR-3 ovarian = test system: OVCAR-3 ovarian
IGROV1 ovarian = test system: IGROV1 ovarian
RPMI-8226 leukemia = test system: RPMI-8226 leukemia
TK-10 renal = test system: TK-10 renal
PC-3 prostate = test system: PC-3 prostate
SNB-75 CNS = test system: SNB-75 CNS
SK-OV-3 ovarian = test system: SK-OV-3 ovarian
MALME-3M melanoma = test system: MALME-3M melanoma
CCRF-CEM leukemia = test system: CCRF-CEM leukemia
HCT-15 colon = test system: HCT-15 colon
HS 578T breast = test system: HS 578T breast
KM12 colon = test system: KM12 colon
SF-539 CNS = test system: SF-539 CNS
NCI-H226 lung = test system: NCI-H226 lung
ACHN renal = test system: ACHN renal
NCI-H460 lung = test system: NCI-H460 lung

Measured: TGI

CCC1(c2ccccc2)C(=O)N=C(c2ccccc2)N1CCc1ccccc1 (centres undefined)
not listed: NCI-H460 lung
> 100 µM: all other assays above

NC(CSC1c2ccccc2-c2ccccc21)C(=O)O (centres undefined)
not listed: HCC-2998 colon | SF-268 CNS | NCI-H522 lung
> 100 µM: all other assays above
